Data reported in PubChem BioAssay AID328 (DTP/NCI, 2004).
Several values for one entry are separate records, joined by “and”; a condition that tells them apart may be missing. Equal values may be shown once. Toxic doses and inconclusive results are not listed.

Test system: BDF1 mice, P388 leukemia ip, median survival T/C
Test: NCI In Vivo Anticancer Drug Screen. Data for tumor model P388 Leukemia (intraperitoneal) in B6D2F1 (BDF1) mice
Details: endpoint: median survival time, higher = longer survival
Summary of the method: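 Reported as T/C, where T is the survival measurement in dosed animals and C the same measurement in vehicle controls.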

With `CC(=O)OCC(OC(C)=O)C(OC(C)=O)C(OC(C)=O)C(/C=N/NC(N)=S)=N/NC(N)=S` (centres undefined) the T/C (dose: 50.0 mg/kg/injection, schedule: Q01DX009 (ip), vehicle: other) was 90 % of control, the T/C (dose: 100.0 mg/kg/injection, schedule: Q01DX009 (ip), vehicle: other) was 100 % of control and the T/C (dose: 100.0 mg/kg/injection, schedule: Q04DX003 (ip), vehicle: other) was 95 % of control. For the same compound, the T/C (dose: 200.0 mg/kg/injection, schedule: Q01DX009 (ip), vehicle: other) was 100 % of control, the T/C (dose: 200.0 mg/kg/injection, schedule: Q04DX003 (ip), vehicle: other) was 105 % of control and the T/C (dose: 400.0 mg/kg/injection, schedule: Q04DX003 (ip), vehicle: other) was 120 % of control.
`O=C1C(OC(=O)c2ccccc2)=C(c2ccc(O)cc2)C(=O)C(OC(=O)c2ccccc2)=C1c1ccc(O)cc1` was tested, and the T/C (dose: 100.0 mg/kg/injection, schedule: Q01DX009 (ip), vehicle: Klucel (hydroxypropylcellulose) (HPC)) was 100 % of control, the T/C (dose: 200.0 mg/kg/injection, schedule: Q01DX009 (ip), vehicle: Klucel (hydroxypropylcellulose) (HPC)) was 100 % of control and the T/C (dose: 400.0 mg/kg/injection, schedule: Q01DX009 (ip), vehicle: Klucel (hydroxypropylcellulose) (HPC)) was 92 % of control.
`COC1OC(C)C(O)C(O)[CH]1[Hg][O]C(C)=O` (centres undefined) was tested, and the T/C (dose: 0.18 mg/kg/injection, schedule: Q01DX009 (ip), vehicle: saline) was 111 % of control, the T/C (dose: 0.37 mg/kg/injection, schedule: Q01DX009 (ip), vehicle: saline) was 105 % of control and the T/C (dose: 0.75 mg/kg/injection, schedule: Q01DX009 (ip), vehicle: saline) was 94 % of control and 105 % of control. The T/C (dose: 1.5 mg/kg/injection, schedule: Q01DX009 (ip), vehicle: saline) was 86 % of control and 111 % of control.
For `CCCCOC(=O)C(C)OC(=O)Nc1ccccc1` (centres undefined), the T/C (dose: 100.0 mg/kg/injection, schedule: Q04DX003 (sc), vehicle: olive oil, sesame oil, peanut oil) was 100 % of control, the T/C (dose: 200.0 mg/kg/injection, schedule: Q04DX003 (sc), vehicle: olive oil, sesame oil, peanut oil) was 88 % of control and the T/C (dose: 400.0 mg/kg/injection, schedule: Q04DX003 (sc), vehicle: olive oil, sesame oil, peanut oil) was 103 % of control.
`CCCCCCc1nc2nc(Cl)c(Cl)nc2[nH]1` was tested, and the T/C (dose: 0.78 mg/kg/injection, schedule: Q01DX009 (ip), vehicle: saline with Tween-80) was 100 % of control, the T/C (dose: 1.56 mg/kg/injection, schedule: Q01DX009 (ip), vehicle: saline with Tween-80) was 89 % of control and the T/C (dose: 3.12 mg/kg/injection, schedule: Q01DX009 (ip), vehicle: saline with Tween-80) was 92 % of control. For the same compound, the T/C (dose: 6.25 mg/kg/injection, schedule: Q01DX009 (ip), vehicle: saline with Tween-80) was 92 % of control and the T/C (dose: 12.5 mg/kg/injection, schedule: Q01DX009 (ip), vehicle: saline with Tween-80) was 95 % of control.
In the case of `C=C1C(O)C2(O)OCC34C(CC5C(C)=CC(=O)C(OC)C5(C)C23)OC(=O)C(OC(=O)C(C)CC)C14` (centres undefined), the T/C (dose: 0.06 mg/kg/injection, schedule: Q01DX009 (ip), vehicle: saline with Tween-80) is reported as 98 % of control, the T/C (dose: 0.12 mg/kg/injection, schedule: Q01DX009 (ip), vehicle: saline with Tween-80) is reported as 112 % of control and the T/C (dose: 0.25 mg/kg/injection, schedule: Q01DX009 (ip), vehicle: saline with Tween-80) is reported as 105 % of control. For the same compound, the T/C (dose: 0.5 mg/kg/injection, schedule: Q01DX009 (ip), vehicle: saline with Tween-80) was 110 % of control, the T/C (dose: 1.0 mg/kg/injection, schedule: Q01DX009 (ip), vehicle: saline with Tween-80) was 120 % of control and the T/C (dose: 2.0 mg/kg/injection, schedule: Q01DX009 (ip), vehicle: saline with Tween-80) was 115 % of control.
With `Nc1c(SSc2ccc3ccccc3c2N)ccc2ccccc12` the T/C (dose: 6.25 mg/kg/injection, schedule: Q01DX001 (ip), vehicle: Klucel (hydroxypropylcellulose) (HPC)) was 109 % of control, the T/C (dose: 12.5 mg/kg/injection, schedule: Q01DX001 (ip), vehicle: Klucel (hydroxypropylcellulose) (HPC)) was 109 % of control and the T/C (dose: 25.0 mg/kg/injection, schedule: Q01DX001 (ip), vehicle: Klucel (hydroxypropylcellulose) (HPC)) was 116 % of control.
In the case of `CN1C(=O)C(=Cc2ccc(N(C)C)cc2)C(=O)N(C)C1=O`, the T/C (dose: 50.0 mg/kg/injection, schedule: Q01DX009 (ip), vehicle: saline with Tween-80) is reported as 103 % of control, the T/C (dose: 100.0 mg/kg/injection, schedule: Q01DX009 (ip), vehicle: saline with Tween-80) is reported as 99 % of control and the T/C (dose: 200.0 mg/kg/injection, schedule: Q01DX009 (ip), vehicle: saline with Tween-80) is reported as 98 % of control.
`NOCc1cccc(C(F)(F)F)c1` was tested, and the T/C (dose: 75.0 mg/kg/injection, schedule: Q04DX003 (ip), vehicle: saline) was 91 % of control, the T/C (dose: 150.0 mg/kg/injection, schedule: Q04DX003 (ip), vehicle: saline) was 91 % of control and the T/C (dose: 300.0 mg/kg/injection, schedule: Q04DX003 (ip), vehicle: saline) was 91 % of control.
For `CC(/C=N/N=C(N)N)=N/N=C(N)N`, the T/C (dose: 100.0 mg/kg/injection, schedule: Q01DX009 (ip), vehicle: saline) was 150 % of control and the T/C (dose: 150.0 mg/kg/injection, schedule: Q01DX009 (ip), vehicle: saline with Tween-80) was 90 % of control.
`CS(=O)(=O)OCCN(CCOS(C)(=O)=O)c1cccc(C(F)(F)F)c1` was tested, and the T/C (dose: 33.0 mg/kg/injection, schedule: Q04DX003 (ip), vehicle: saline with Tween-80) was 155 % of control and 168 % of control, the T/C (dose: 50.0 mg/kg/injection, schedule: Q04DX003 (ip), vehicle: saline with Tween-80) was 170 % of control and 190 % of control and the T/C (dose: 75.0 mg/kg/injection, schedule: Q04DX003 (ip), vehicle: saline with Tween-80) was 236 % of control and 190 % of control.
For `Cc1ccc2c(=O)n3cccc3c(=O)[nH]c2c1O`, the T/C (dose: 100.0 mg/kg/injection, schedule: Q04DX003 (ip), vehicle: saline with Tween-80) was 103 % of control, the T/C (dose: 200.0 mg/kg/injection, schedule: Q04DX003 (ip), vehicle: saline with Tween-80) was 100 % of control and the T/C (dose: 400.0 mg/kg/injection, schedule: Q04DX003 (ip), vehicle: saline with Tween-80) was 96 % of control.
In the case of `N=[N+]=CC(=O)CCC(NC(=O)C(CCC(=O)C=[N+]=N)NC(=O)CCC(N)C(=O)O)C(=O)O` (centres undefined), the T/C (dose: 0.1 mg/kg/injection, schedule: Q01DX009 (ip), vehicle: Klucel (hydroxypropylcellulose) (HPC)) is reported as 88 % of control, the T/C (dose: 0.2 mg/kg/injection, schedule: Q01DX009 (ip), vehicle: Klucel (hydroxypropylcellulose) (HPC)) is reported as 92 % of control and the T/C (dose: 0.2 mg/kg/injection, schedule: Q01DX009 (ip), vehicle: water) is reported as 163 % of control. For the same compound, the T/C (dose: 0.2 mg/kg/injection, schedule: Q01DX010 (ip), vehicle: other) was 170 % of control, the T/C (dose: 0.3 mg/kg/injection, schedule: Q01DX009 (ip), vehicle: water) was 109 % of control and the T/C (dose: 0.4 mg/kg/injection, schedule: Q01DX009 (ip), vehicle: Klucel (hydroxypropylcellulose) (HPC)) was 94 % of control. For the same compound, the T/C (dose: 0.4 mg/kg/injection, schedule: Q01DX009 (ip), vehicle: water) was 150 % of control, the T/C (dose: 0.4 mg/kg/injection, schedule: Q01DX010 (ip), vehicle: other) was 210 % of control and the T/C (dose: 0.4 mg/kg/injection, schedule: Q01DX010 (ip), vehicle: water) was 172 % of control. For the same compound, the T/C (dose: 0.5 mg/kg/injection, schedule: Q01DX009 (ip), vehicle: water) was 86 % of control, the T/C (dose: 0.6 mg/kg/injection, schedule: Q01DX009 (ip), vehicle: water) was 90 % of control and the T/C (dose: 0.6 mg/kg/injection, schedule: Q01DX010 (ip), vehicle: other) was 120 % of control. For the same compound, the T/C (dose: 0.6 mg/kg/injection, schedule: Q01DX010 (ip), vehicle: water) was 109 % of control and 110 % of control, the T/C (dose: 0.8 mg/kg/injection, schedule: Q01DX009 (ip), vehicle: Klucel (hydroxypropylcellulose) (HPC)) was 102 % of control and the T/C (dose: 0.8 mg/kg/injection, schedule: Q01DX010 (ip), vehicle: other) was 110 % of control. The T/C (dose: 0.8 mg/kg/injection, schedule: Q01DX010 (ip), vehicle: water) was 100 % of control, the T/C (dose: 1.0 mg/kg/injection, schedule: Q01DX010 (ip), vehicle: water) was 90 % of control and the T/C (dose: 1.6 mg/kg/injection, schedule: Q01DX009 (ip), vehicle: Klucel (hydroxypropylcellulose) (HPC)) was 97 % of control. The T/C (dose: 2.5 mg/kg/injection, schedule: Q02DX005 (oral), vehicle: other) was 163 % of control, the T/C (dose: 5.0 mg/kg/injection, schedule: Q02DX005 (oral), vehicle: other) was 159 % of control and the T/C (dose: 7.5 mg/kg/injection, schedule: Q04DX003 (ip), vehicle: water) was 154 % of control. The T/C (dose: 10.0 mg/kg/injection, schedule: Q02DX005 (oral), vehicle: other) was 177 % of control, the T/C (dose: 12.5 mg/kg/injection, schedule: Q04DX003 (oral), vehicle: water) was 172 % of control and the T/C (dose: 15.0 mg/kg/injection, schedule: Q02DX005 (oral), vehicle: other) was 209 % of control. The T/C (dose: 15.0 mg/kg/injection, schedule: Q04DX003 (ip), vehicle: water) was 200 % of control, the T/C (dose: 20.0 mg/kg/injection, schedule: Q02DX005 (oral), vehicle: other) was 195 % of control and the T/C (dose: 25.0 mg/kg/injection, schedule: Q04DX003 (oral), vehicle: water) was 200 % of control. For the same compound, the T/C (dose: 30.0 mg/kg/injection, schedule: Q04DX003 (ip), vehicle: water) was 218 % of control, the T/C (dose: 50.0 mg/kg/injection, schedule: Q04DX003 (oral), vehicle: water) was 222 % of control and the T/C (dose: 100.0 mg/kg/injection, schedule: Q04DX003 (oral), vehicle: water) was 104 % of control.
